Results taken from PubChem BioAssay (NCI).
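Each compound was tested at five concentrations against cells in 96-well plates for 48 hours. TGI marks complete inhibition of growth.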

Experiments:
Assay in all cases: growth of human tumour cells (NCI), 48 h
[1] = test system: OVCAR-5 ovarian
[2] = test system: SN12C renal
[3] = test system: OVCAR-3 ovarian
[4] = test system: RPMI-8226 leukemia
[5] = test system: HCT-116 colon
[6] = test system: NCI-H522 lung
[7] = test system: NCI-H226 lung
[8] = test system: HT29 colon
[9] = test system: SF-295 CNS
[10] = test system: SNB-75 CNS
[11] = test system: SK-OV-3 ovarian
[12] = test system: MDA-N
[13] = test system: 786-0 renal
[14] = test system: OVCAR-8 ovarian
[15] = test system: KM12 colon
[16] = test system: UO-31 renal
[17] = test system: UACC-257 melanoma
[18] = test system: MALME-3M melanoma
[19] = test system: A549 NSCLC
[20] = test system: MCF7 breast
[21] = test system: SF-268 CNS
[22] = test system: MDA-MB-231 breast
[23] = test system: PC-3 prostate
[24] = test system: EKVX NSCLC
[25] = test system: CCRF-CEM leukemia
[26] = test system: NCI/ADR-RES ovarian
[27] = test system: SF-539 CNS
[28] = test system: BT-549 breast
[29] = test system: ACHN renal
[30] = test system: LOX IMVI melanoma
[31] = test system: UACC-62 melanoma
[32] = test system: HCC-2998 colon
[33] = test system: K-562 leukemia
[34] = test system: CAKI-1 renal
[35] = test system: HL-60(TB) leukemia
[36] = test system: SK-MEL-2 melanoma
[37] = test system: SNB-19 CNS
[38] = test system: HS 578T breast
[39] = test system: TK-10 renal
[40] = test system: SK-MEL-28 melanoma
[41] = test system: HCT-15 colon
[42] = test system: MOLT-4 leukemia
[43] = test system: SW-620 colon
[44] = test system: M14 melanoma
[45] = test system: HOP-62 NSCLC
[46] = test system: MDA-MB-435
[47] = test system: HOP-92 NSCLC
[48] = test system: IGROV1 ovarian
[49] = test system: U251 CNS
[50] = test system: DU-145 prostate
[51] = test system: COLO 205 colon
[52] = test system: OVCAR-4 ovarian
[53] = test system: NCI-H460 lung
[54] = test system: SR leukemia
[55] = test system: NCI-H23 lung
[56] = test system: A498 renal
[57] = test system: SK-MEL-5 melanoma
[58] = test system: RXF 393 renal

Compound `CCOC(=O)N1CCN(c2ccc3ccc(N)nc3n2)CC1` has a TGI [1] of over 100 µM, a TGI [2] of over 100 µM and a TGI [3] of over 100 µM. It also gave a TGI [4] of over 100 µM, a TGI [5] of over 100 µM and a TGI [6] of over 100 µM. For the same compound, the TGI [7] was over 100 µM, the TGI [8] was over 100 µM and the TGI [9] was over 100 µM. The TGI [10] was over 100 µM, the TGI [11] was over 100 µM and the TGI [12] was over 100 µM. For the same compound, the TGI [13] was over 100 µM, the TGI [14] was over 100 µM and the TGI [15] was over 100 µM. For the same compound, the TGI [16] was over 100 µM, the TGI [17] was over 100 µM and the TGI [18] was over 100 µM. It also gave a TGI [19] of over 100 µM, a TGI [20] of over 100 µM and a TGI [21] of over 100 µM. It also gave a TGI [22] of over 100 µM, a TGI [23] of over 100 µM and a TGI [24] of over 100 µM. The TGI [25] was over 100 µM, the TGI [26] was over 100 µM and the TGI [27] was over 100 µM. The TGI [28] was over 100 µM, the TGI [29] was over 100 µM and the TGI [30] was over 100 µM. It also gave a TGI [31] of over 100 µM, a TGI [32] of over 100 µM and a TGI [33] of over 100 µM. For the same compound, the TGI [34] was over 100 µM, the TGI [35] was over 100 µM and the TGI [36] was over 100 µM. The TGI [37] was over 100 µM, the TGI [38] was over 100 µM and the TGI [39] was over 100 µM. It also gave a TGI [40] of over 100 µM, a TGI [41] of over 100 µM and a TGI [42] of over 100 µM. It also gave a TGI [43] of over 100 µM, a TGI [44] of over 100 µM and a TGI [45] of over 100 µM. The TGI [46] was over 100 µM, the TGI [47] was over 100 µM and the TGI [48] was over 100 µM. The TGI [49] was over 100 µM, the TGI [50] was over 100 µM and the TGI [51] was over 100 µM. The TGI [52] was over 100 µM, the TGI [53] was over 100 µM and the TGI [54] was over 100 µM. It also gave a TGI [55] of over 100 µM.

In the case of `CCOP(=O)(OCC)/C(C#N)=C/c1coc2cc(C)cc(C)c2c1=O`, the TGI [1] is reported as over 100 µM, the TGI [2] is reported as over 100 µM and the TGI [3] is reported as over 100 µM. For the same compound, the TGI [56] was over 100 µM, the TGI [4] was over 100 µM and the TGI [5] was over 100 µM. The TGI [6] was over 100 µM, the TGI [7] was over 100 µM and the TGI [8] was over 100 µM. The TGI [9] was over 100 µM, the TGI [10] was over 100 µM and the TGI [11] was over 100 µM. It also gave a TGI [12] of over 100 µM, a TGI [13] of over 100 µM and a TGI [14] of over 100 µM. For the same compound, the TGI [15] was over 100 µM, the TGI [16] was over 100 µM and the TGI [17] was over 100 µM. The TGI [18] was over 100 µM, the TGI [19] was over 100 µM and the TGI [20] was over 100 µM. For the same compound, the TGI [21] was over 100 µM, the TGI [22] was over 100 µM and the TGI [23] was over 100 µM. The TGI [24] was over 100 µM, the TGI [25] was over 100 µM and the TGI [26] was over 100 µM. It also gave a TGI [28] of over 100 µM, a TGI [29] of over 100 µM and a TGI [30] of over 100 µM. It also gave a TGI [31] of over 100 µM, a TGI [32] of over 100 µM and a TGI [33] of over 100 µM. For the same compound, the TGI [34] was over 100 µM, the TGI [35] was over 100 µM and the TGI [36] was over 100 µM. For the same compound, the TGI [37] was over 100 µM, the TGI [38] was over 100 µM and the TGI [40] was over 100 µM. It also gave a TGI [42] of over 100 µM, a TGI [43] of over 100 µM and a TGI [44] of over 100 µM. For the same compound, the TGI [57] was over 100 µM, the TGI [45] was over 100 µM and the TGI [46] was over 100 µM. It also gave a TGI [47] of over 100 µM, a TGI [48] of over 100 µM and a TGI [49] of over 100 µM. The TGI [50] was over 100 µM, the TGI [51] was over 100 µM and the TGI [52] was over 100 µM. It also gave a TGI [53] of over 100 µM, a TGI [54] of over 100 µM and a TGI [55] of over 100 µM.

`CC(=O)Oc1ccc(/C=C/C(=O)NCC(NC(=O)/C=C/c2ccc(OC(C)=O)c(OC(C)=O)c2)C(=O)O)cc1OC(C)=O` (centres undefined) showed a TGI [1] of over 100 µM, a TGI [2] of over 100 µM and a TGI [3] of over 100 µM. For the same compound, the TGI [56] was over 100 µM, the TGI [4] was over 100 µM and the TGI [5] was over 100 µM. For the same compound, the TGI [6] was over 100 µM, the TGI [7] was over 100 µM and the TGI [8] was over 100 µM. The TGI [9] was over 100 µM, the TGI [12] was over 100 µM and the TGI [13] was over 100 µM. The TGI [14] was over 100 µM, the TGI [15] was over 100 µM and the TGI [16] was over 100 µM. For the same compound, the TGI [17] was over 100 µM, the TGI [18] was over 100 µM and the TGI [19] was over 100 µM. For the same compound, the TGI [20] was over 100 µM, the TGI [21] was over 100 µM and the TGI [22] was over 100 µM. The TGI [23] was over 100 µM, the TGI [24] was over 100 µM and the TGI [25] was over 100 µM. It also gave a TGI [26] of over 100 µM, a TGI [27] of over 100 µM and a TGI [28] of over 100 µM. It also gave a TGI [29] of over 100 µM, a TGI [30] of over 100 µM and a TGI [31] of over 100 µM. The TGI [32] was over 100 µM, the TGI [33] was over 100 µM and the TGI [34] was over 100 µM. It also gave a TGI [36] of over 100 µM, a TGI [37] of over 100 µM and a TGI [38] of over 100 µM. The TGI [39] was over 100 µM, the TGI [40] was over 100 µM and the TGI [41] was over 100 µM. For the same compound, the TGI [42] was 50.1 µM, the TGI [43] was over 100 µM and the TGI [44] was over 100 µM. The TGI [57] was over 100 µM, the TGI [45] was over 100 µM and the TGI [46] was over 100 µM. It also gave a TGI [47] of over 100 µM, a TGI [48] of over 100 µM and a TGI [49] of over 100 µM. It also gave a TGI [50] of over 100 µM, a TGI [51] of over 100 µM and a TGI [52] of over 100 µM. It also gave a TGI [53] of over 100 µM, a TGI [54] of over 100 µM and a TGI [55] of over 100 µM. For the same compound, the TGI [58] was over 100 µM.
